Test results: BindingDB's records for doi:10.1021/cc060110n (University of Mississippi, 2007)
pIC50: −log10 of the molar value.

Legend:
L-lactate dehydrogenase = L-lactate dehydrogenase (Plasmodium falciparum, UniProt B9UDZ5); experiment: Enzyme Assay
Text: (§1) Enzyme assay using recombinant pfLDH and mLDH (bovine heart).

[1] = biological target: L-lactate dehydrogenase B chain (Bos taurus, UniProt Q5E9B1); experiment: Enzyme Assay
Text: as §1

Chain of L-lactate dehydrogenase B chain (Q5E9B1 whole entry): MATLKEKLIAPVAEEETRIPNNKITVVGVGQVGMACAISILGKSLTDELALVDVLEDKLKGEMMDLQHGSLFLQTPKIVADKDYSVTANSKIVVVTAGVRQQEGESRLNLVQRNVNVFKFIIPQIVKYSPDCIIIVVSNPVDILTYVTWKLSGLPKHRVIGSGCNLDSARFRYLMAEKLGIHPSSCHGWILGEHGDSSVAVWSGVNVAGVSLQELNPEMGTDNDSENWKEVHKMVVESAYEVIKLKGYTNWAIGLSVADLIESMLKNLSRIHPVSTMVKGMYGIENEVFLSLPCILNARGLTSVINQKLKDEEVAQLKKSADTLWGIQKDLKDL
Chain of L-lactate dehydrogenase (B9UDZ5 whole entry): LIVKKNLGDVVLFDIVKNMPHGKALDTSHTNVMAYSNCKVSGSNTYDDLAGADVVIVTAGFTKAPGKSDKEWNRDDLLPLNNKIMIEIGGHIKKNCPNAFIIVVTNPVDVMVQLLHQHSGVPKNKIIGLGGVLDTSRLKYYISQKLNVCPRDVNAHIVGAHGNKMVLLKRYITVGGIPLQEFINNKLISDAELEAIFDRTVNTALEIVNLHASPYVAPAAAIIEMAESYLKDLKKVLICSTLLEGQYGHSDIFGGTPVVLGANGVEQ

Structure (SMILES)	pIC50 (L-lactate dehydrogenase)	pIC50 [1]
CCc1ccccc1N(Cc1ccccc1)C(=O)C(=O)O [Oxamic Acid/Ester, 8]	< 3.70	3.80
CN(C(=O)C(=O)O)c1ccccc1 [Oxamic Acid/Ester, 24]	< 3.70	< 3.70
O=C(O)C(=O)N(Cc1ccccc1)Cc1ccccc1 [Oxamic Acid/Ester, 32]	< 3.70	< 3.70
O=C(O)C(=O)N1CCC(Cc2ccccc2)CC1 [Oxamic Acid/Ester, 20]	4.00	4.23
CC(NC(=O)C(=O)O)c1cccc2c1CCCC2 (stereo not drawn) [Oxamic Acid/Ester, 38]	3.84	< 3.70
C=CCN(C(=O)C(=O)O)C1CCCCC1 [Oxamic Acid/Ester, 29]	< 3.70	< 3.70
CC1CCCCN1C(=O)C(=O)O (stereo not drawn) [Oxamic Acid/Ester, 33]	< 3.70	4.37
Cc1cc2c(C(C)C)c(O)c(O)c(C=O)c2c(O)c1-c1c(C)cc2c(C(C)C)c(O)c(O)c(C=O)c2c1O [Tash 1]	5.40	5.16
O=C(O)C(=O)N1CCN(c2ccccc2)CC1 [Oxamic Acid/Ester, 27]	< 3.70	4.49
CC(C)c1ccc2c(c1)CCC1[C@](C)(CNC(=O)C(=O)O)CCC[C@]21C (stereo partly drawn) [Oxamic Acid/Ester, 18]	4.23	4.70
Cc1cccc(N(C(=O)C(=O)O)c2ccccc2)c1 [Oxamic Acid/Ester, 7]	4.01	3.97
C=CCN(C)C(=O)C(=O)O [Oxamic Acid/Ester, 11]	< 3.70	< 3.70
O=C(O)C(=O)N1CCN(Cc2ccccc2)CC1 [Oxamic Acid/Ester, 19]	3.77	4.34
CN(Cc1ccco1)C(=O)C(=O)O [Oxamic Acid/Ester, 16]	< 3.70	3.73
CSc1cccc(NC(=O)C(=O)O)c1 [Oxamic Acid/Ester, 37]	< 3.70	< 3.70
CN(Cc1ccccc1)C(=O)C(=O)O [Oxamic Acid/Ester, 30]	< 3.70	3.77
O=C(O)C(=O)N(Cc1ccccc1)c1ccccc1 [Oxamic Acid/Ester, 22]	< 3.70	< 3.70
COc1ccccc1NC(=O)C(=O)O [Oxamic Acid/Ester, 6]	< 3.70	< 3.70

Second part, the compound after the results:

pIC50 (L-lactate dehydrogenase)	pIC50 [1]	Structure (SMILES)
4.39	4.06	O=C(O)C(=O)NCCCCc1ccccc1 [Oxamic Acid/Ester, 41]
4.85	4.60	COCCNC(=O)C(=O)O [Oxamic Acid/Ester, 21]
3.73	< 3.70	O=C(O)C(=O)NCC1CCCO1 (stereo not drawn) [Oxamic Acid/Ester, 35]
< 3.70	< 3.70	CCC(C)NC(=O)C(=O)O (stereo not drawn) [Oxamic Acid/Ester, 31]
4.37	< 3.70	O=C(O)C(=O)NCc1cccc2ccccc12 [Oxamic Acid/Ester, 17]
4.29	< 3.70	O=C(O)C(=O)NCCc1ccc(Br)cc1 [Oxamic Acid/Ester, 42]
< 3.70	< 3.70	CCCCCN(C)C(=O)C(=O)O [Oxamic Acid/Ester, 28]
3.80	< 3.70	CCCCCCCNC(=O)C(=O)O [Oxamic Acid/Ester, 10]
< 3.70	< 3.70	CC(C)CNC(=O)C(=O)O [Oxamic Acid/Ester, 40]
3.80	< 3.70	CC(C)CCNC(=O)C(=O)O [Oxamic Acid/Ester, 34]
< 3.70	< 3.70	O=C(O)C(=O)NCc1ccco1 [Oxamic Acid/Ester, 39]
4.46	4.05	O=C(O)C(=O)NCCC(c1ccccc1)c1ccccc1 [Oxamic Acid/Ester, 36]
< 3.70	3.82	CCCCCCCCCCCCCCCCNC(=O)C(=O)O [Oxamic Acid/Ester, 14]
4.33	3.88	CCCCCCNC(=O)C(=O)O [Oxamic Acid/Ester, 23]
< 3.70	< 3.70	Cc1ccc(CNC(=O)C(=O)O)o1 [Oxamic Acid/Ester, 15]
4.37	4.51	COCCCNC(=O)C(=O)O [Oxamic Acid/Ester, 25]
4.03		NC(=O)C(=O)O [carbamoylformic acid]
< 3.70	< 3.70	CCCCNC(=O)C(=O)O [Oxamic Acid/Ester, 12]
4.06	< 3.70	CCCCCCCCCNC(=O)C(=O)O [Oxamic Acid/Ester, 26]
